# According to publication PMC12613848, “First in human phase 1 study of DT2216, a selective BCL-xL degrader, in patients with relapsed/refractory solid malignancies” (Journal of Hematology & Oncology, 2025):
# Values joined by “and” are separate entries in the source; they are usually repeats but may differ in a detail not shown here. Identical values can stand only once. “Also recorded” adds a separate entry of the source.
# Key:
# [1] = Safety and tolerability in patients (adverse events CTCAE v5.0, DLT, platelet count, RP2D); assay type: in vivo, human
# Experimental: Dose escalation consisted of the administration of DT2216 intravenously twice weekly at several different doses outlined in protocol attached. The starting dose was 0.04 mg/kg, established based on pre-clinical toxicity studies. Safety was evaluated using CTCAE version 5.0. The initial three dose levels enrolled one patient, following which for dose level 4 and 5, a 3 + 3 design was utilized following a 100% incremental dose increase for dose levels 2 to 5 until the first dose limiting toxicity (DLT) in cycle 1 was observed. Thereafter, a modified Fibonacci sequence was used to define dose escalation increments until the maximum tolerated dose (MTD) was reached as described in protocol. If no dose-limiting toxicity (DLT) was observed during the DLT monitoring period of first 28 days, the next patient was enrolled at the next higher dose level. Dose-limiting toxicities (DLTs) during the first treatment cycle were defined as any Grade 5 toxicity; Grade 4 neutropenia lasting > 7 days; febrile neutropenia; Grade 4 thrombocytopenia or Grade 3 thrombocytopenia with clinically significant hemorrhage or lasting ≥ 7 days; and Grade ≥ 3 non-hematologic toxicities, excluding nausea, vomiting, or diarrhea lasting ≤ 3 days or transient laboratory abnormalities resolving within 72 h. Hepatotoxicity meeting Hy’s law criteria was also considered a DLT. Transient Grade 3–4 electrolyte abnormalities resolving to ≤ Grade 2 within 72 h were not considered DLTs.
# Patients were allowed a maximum of two intra-patient dose escalations. Patients received DT2216 by intravenous infusion on days 1 and 4 weekly for at least 4 weeks, with each cycle consisting of a 28-day cycle for a maximum duration of 1 year until disease progression, unacceptable toxicity, or other withdrawal criteria, as listed in the protocol. The extent of disease was evaluated using imaging studies and disease-appropriate tumor markers every 8 weeks from day 1 of the first cycle. RP2D was established based on MTD as well as other relevant data, including clinical signals of activity, PK, and PD data.
# Premedication prior to each infusion was at the discretion of the investigator or according to institutional guidelines. Patient assessment and follow-up procedures can be found in the schedule of assessments in this study. The clinical response was evaluated using RECIST v1.1 per protocol. Blood samples were collected for PK analysis before and after post-infusion at defined intervals, along with platelet counts. Exploratory biomarkers include (but are not limited to) the assessment of BCL-XL and VHL levels in peripheral white blood cells (WBC).
# BCL-XL [2] = tested on: BCL-XL; set-up: method as in PMID 31792461; settings: MOLT-4 T-ALL xenografts, after a single dosing; cited from earlier work
# MOLT-4 cells (T-ALL) = test: In vitro IC90, MOLT-4 cells; assay type: cell-based; settings: Homo sapiens
# Experimental: (§1) Fig. 7 Mean Plasma concentration of DT2216 in 4 patients infused with DT2216 at 0.4 mg/kg over time against in vitro inhibitory concentration 90%(IC90) for various cell lines. SCLC – small cell lung cancer; OC- ovarian carcinoma; T-ALL – T cell acute lymphoblastic leukemia, CTCL – Cutaneous T cell lymphoma TEXT PRINTED IN THE PICTURE: DT2216: IC90 (≈ 1000 nM) for H146 cells (SCLC); IC90 (< 1000 nM) for OVCAR4 cells (OC); IC90 (≈ 500 nM) for MOLT-4 cells (T-ALL); IC90 (< 100 nM) for OVCAR4 cells (OC)* (*In combination with Carboplatin); IC90 (≈ 100 nM) for H146 cells (SCLC)** (**In combination with SN-38/irinotecan); IC90 (30 nM) for Myla cells (CTCL)
# BCL-XL [3] = target: T1, BCL-XL (Homo sapiens, UniProt Q07817); test: BCL-XL levels in peripheral leukocytes of patients by western blotting; assay type: in vivo; settings: 0.4 mg/kg IV, 4 patients, after C1D1
# T1 construct: endogenous in cells; host or cells: peripheral leukocytes (WBC) of trial patients
# T1 sequence (Q07817 whole entry): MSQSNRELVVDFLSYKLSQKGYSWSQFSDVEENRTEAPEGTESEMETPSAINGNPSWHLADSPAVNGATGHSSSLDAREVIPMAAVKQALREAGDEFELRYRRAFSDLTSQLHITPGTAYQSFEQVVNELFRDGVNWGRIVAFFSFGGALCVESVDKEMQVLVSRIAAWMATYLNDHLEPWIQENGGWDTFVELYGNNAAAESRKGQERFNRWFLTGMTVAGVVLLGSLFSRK
# Experimental: Methods A dose escalation study using a 3 + 3 design with doses ranging from 0.04 to 0.4 mg/kg IV twice weekly (BIW) was performed. Eligible subjects had solid tumors of any histology that had progressed on standard treatment and had measurable tumor by RECIST v1.1. Tumor assessment was performed at 8-week intervals. BCL-XL levels were measured in peripheral leukocytes by western blotting. Results Twenty patients were enrolled, with a median age of 60.5 year; 60% were female. Only one dose-limiting toxicity was observed, grade 4 thrombocytopenia that resolved within 48 h. Stable disease, observed in 20% of the patients. The lowest platelet count in the first cycle ranged from 24,000 to 297,000. In all cases, the platelet count recovered to > 50,000 within 4 days and > 75,000 within 1 week. […] The median overall survival was 7.9 months. […] Conclusions Based on the rapid recovery of transient thrombocytopenia that occurred only in the first cycle and the degradation of BCL-XL in peripheral leukocytes, the RP2D of DT2216 is 0.4 mg/kg IV BIW. (NCT04886622)
# Premedication prior to each infusion was at the discretion of the investigator or according to institutional guidelines. Patient assessment and follow-up procedures can be found in the schedule of assessments in this study. The clinical response was evaluated using RECIST v1.1 per protocol. […]
# OVCAR4 cells (OC) = test: In vitro IC90, OVCAR4 cells; assay type: cell-based; settings: Homo sapiens, OVCAR-4, DT2216 alone
# Experimental: as §1
# [4] = number of subjects, 20 patients, all dose cohorts
# [5] = related TEAE, 20 patients, all dose cohorts
compound,measurement,setting,value
Cc1ncsc1-c1ccc([C@H](C)NC(=O)[C@@H]2C[C@@H](O)CN2C(=O)[C@@H](NC(=O)CCCCCC(=O)N2CCN(CC[C@H](CSc3ccccc3)Nc3ccc(S(=O)(=O)NC(=O)c4ccc(N5CCN(CC6=C(c7ccc(Cl)cc7)CCC(C)(C)C6)CC5)cc4)cc3S(=O)(=O)C(F)(F)F)CC2)C(C)(C)C)cc1 [DT2216],"fatigue, related TEAE",[1]; 2 patients of 20,10%
same,"infusion-related reaction, related TEAE",[1]; 2 patients of 20,10%
same,"thrombocytopenia, related TEAE",[1]; 9 patients of 20,45%
same,bleeding events and treatment related deaths,[1]; 20 patients,no episodes of bleeding or treatment emergent adverse events leading to death; also recorded: no major bleeding events or treatment related deaths
same,Treatment discontinuation: Adverse event (subjects),"[1]; Cohort 1 (0.04 mg/kg), 1 treated",0
same,Treatment discontinuation: Adverse event (subjects),"[1]; Cohort 2 (0.08 mg/kg), 1 treated",0
same,Treatment discontinuation: Adverse event (subjects),"[1]; Cohort 3 (0.12 mg/kg), 1 treated",0
same,Treatment discontinuation: Adverse event (subjects),"[1]; Cohort 4 (0.24 mg/kg), 7 treated",0
same,Treatment discontinuation: Adverse event (subjects),"[1]; Cohort 5 (0.32 mg/kg), 6 treated",0
same,Treatment discontinuation: Adverse event (subjects),"[1]; Cohort 6 (0.40 mg/kg), 4 treated",0
same,patients with at least one related treatment-emergent adverse event (TEAE),[1]; Sixteen of 20 patients,80%
same,Treatment discontinuation: Adverse event (subjects),"[1]; Total, 20 treated",0
same,"time to platelet count recovery to > 50,000",[1]; all cases,≤ 4 days
same,"time to platelet count recovery to > 75,000",[1]; all cases,≤ 1 week
same,number of dose-limiting toxicities (grade 4 thrombocytopenia),"[1]; dose escalation 0.04 to 0.4 mg/kg IV BIW, DLT at 0.32 mg/kg",one
same,lowest platelet count observed during the study,"[1]; human, in vivo","24,000 /µL"
same,median duration of dose interruption due to thrombocytopenia,"[1]; human, in vivo",5 days
same,time to resolution of the grade 4 thrombocytopenia DLT,"[1]; human, in vivo",≤ 48 h
same,"Alanine aminotransferase increased, Grade > 3",[1]; [4],0
same,"Blood bilirubin increased, Grade > 3",[1]; [4],0
same,"Contusion, Grade > 3",[1]; [4],0
same,"Decreased appetite, Grade > 3",[1]; [4],0
same,"Fatigue, Grade > 3",[1]; [4],0
same,"Hematuria, Grade > 3",[1]; [4],0
same,"Infusion related reaction, Grade > 3",[1]; [4],0
same,"Lipase increased, Grade > 3",[1]; [4],0
same,"Temperature intolerance, Grade > 3",[1]; [4],0
same,"Thrombocytopenia, Grade > 3",[1]; [4],1
same,patients with dose interruption due to thrombocytopenia,[1]; of 20 patients,8 patients
same,patients with dose reduction due to thrombocytopenia,[1]; of 20 patients,2 patients and 1 patients
same,need for platelet transfusions,[1]; patients with thrombocytopenia,none of the patients required platelet transfusions
same,"Alanine aminotransferase increased, Number of subjects (%)",[1]; [5],1 (5) subjects (%)
same,"Blood bilirubin increased, Number of subjects (%)",[1]; [5],1 (5) subjects (%)
same,"Contusion, Number of subjects (%)",[1]; [5],1 (5) subjects (%)
same,"Decreased appetite, Number of subjects (%)",[1]; [5],1 (5) subjects (%)
same,"Fatigue, Number of subjects (%)",[1]; [5],2 (10) subjects (%)
same,"Hematuria, Number of subjects (%)",[1]; [5],1 (5) subjects (%)
same,"Infusion related reaction, Number of subjects (%)",[1]; [5],2 (10) subjects (%)
same,"Lipase increased, Number of subjects (%)",[1]; [5],1 (5) subjects (%)
same,"Temperature intolerance, Number of subjects (%)",[1]; [5],1 (5) subjects (%)
same,"Thrombocytopenia, Number of subjects (%)",[1]; [5],9 (45) subjects (%)
same,duration of BCL-XL degradation,BCL-XL [2],approximately 2 weeks
same,IC90,MOLT-4 cells (T-ALL),~500 nM
same,BCL-XL expression in peripheral leukocytes,BCL-XL [3],rapid and sustained degradation of BCL-XL; also recorded: decreases rapidly after infusion of DT2216 and is persistent
same,IC90,OVCAR4 cells (OC),< 1000 nM
